The record followed here is patent US10213415B2, “Compounds as opioid receptor modulators” (JANSSEN PHARMACEUTICA NV, priority 2004, dated 2019).

The structures appear in SMILES notation.

The term EC50 denotes the concentration that produces a half-maximal response.

T2 sequence (P35372 whole entry): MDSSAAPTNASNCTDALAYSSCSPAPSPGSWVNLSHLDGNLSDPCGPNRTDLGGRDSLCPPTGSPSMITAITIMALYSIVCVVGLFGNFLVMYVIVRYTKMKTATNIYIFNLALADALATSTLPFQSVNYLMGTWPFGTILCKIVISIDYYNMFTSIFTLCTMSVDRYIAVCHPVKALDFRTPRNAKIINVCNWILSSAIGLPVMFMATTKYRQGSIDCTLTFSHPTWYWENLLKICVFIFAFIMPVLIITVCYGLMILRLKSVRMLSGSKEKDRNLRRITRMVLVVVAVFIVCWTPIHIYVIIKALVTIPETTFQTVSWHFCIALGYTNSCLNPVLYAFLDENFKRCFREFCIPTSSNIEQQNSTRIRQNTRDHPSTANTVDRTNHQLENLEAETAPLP
T1 sequence (P35372 whole entry): as above

One experiment concerns the target T1, human mu opioid receptor (Homo sapiens, UniProt P35372).
T1 construct: purchased Perkin Elmer RBHOMM400UA; host or cells: Chinese Hamster Ovary cells (recombinant expression)
Nature of the experiment: Human Mu Opioid Receptor Binding Assay (CHO membranes, 3H-Damgo). The following applies: read-out: hKi μ. As for the experimental part:
Membranes from Chinese Hamster Ovary cells expressing the human […] opioid receptor (Perkin Elmer #RBHOMM400UA) are homogenized in assay buffer (50 mM Tris, pH 7.5 with 5 mM MgCl2) using a glass tissue grinder, Teflon pestle and a Steadfast Stirrer (Fisher Scientific). The concentration of membranes is adjusted to 300 μg/mL in assay buffer and 100 μL is dispensed into each well of the assay plate, a 96 well round bottom polypropylene plate. Compounds to be tested are solubilized in DMSO (Pierce), 10 mM, then diluted in assay buffer to 6× the desired final concentration. The ligand, ^3H-Damgo (Perkin Elmer #NET-902) is also diluted in assay buffer to 3.6 nM. In a second 96 well round bottom polypropylene plate, known as the premix plate, 60 μL of the 6× compound is combined with 60 μL of 3.6 nM ^3H-Damgo. From this premix plate 50 μL is transferred to the assay plate containing the membranes, in duplicate. The assay plate is incubated for 2 h at room temperature. A GF/C 96 well filter plate (Perkin Elmer #6005174) is pretreated with 0.3% polyethylenimine for 30 min. The contents of the assay plate are filtered through the filter plate using a Packard Filtermate Harvester, and washed 3 times with 0.9% saline that is 4° C. The filter plate is dried, the underside sealed, and 30 μL Microscint20 (Packard #6013621) added to each well. A Topcount-NXT Microplate Scintillation Counter (Packard) is used to measure emitted energies in the range of 2.9 to 35 KeV. […] Nonspecific binding is determined in the presence of 1 μM unlabelled Damgo (Tocris #1171).
For the compound `CC(C)[C@@H](c1nc(-c2ccccc2)c[nH]1)N(C(=O)[C@@H](N)Cc1cccc(C(N)=O)c1)C(C)C` [Cpd 137], the Ki was 0.445 µM.
`Cc1cc(O)cc(C)c1C[C@H](N)C(=O)N(Cc1nc(C=Cc2ccccc2)c(C)[nH]1)C(C)C` [Cpd 38]: the Ki is 0.019 µM.
Turning to `Cc1cc(O)cc(C)c1C[C@H](N)C(=O)N(Cc1nc(-c2ccc(C(=O)O)c(F)c2)c(C)[nH]1)C(C)C` [Cpd 37], the Ki was 0.183 µM.
Consider `Cc1cc(O)cc(C)c1C[C@H](N)C(=O)N(CC1CCNCC1)[C@@H](C)c1nc(-c2ccccc2)c[nH]1` [Cpd 16], for which the Ki came to 0.016 µM.
Take `Cc1cc(C(N)=O)cc(C)c1C[C@H](N)C(=O)N(Cc1ccccc1)[C@@H](C)c1nc(-c2ccc(C(F)(F)F)cc2)c[nH]1` [Cpd 42]: the Ki was 0.0058 µM.
For the compound `COc1ccc(CN(C(=O)[C@@H](N)Cc2c(C)cc(C(N)=O)cc2C)[C@@H](C)c2nc(-c3ccccc3Br)c[nH]2)cc1OC` [Cpd 26], the Ki came to 0.017 µM.
Take `Cc1cc(C(N)=O)cc(C)c1C[C@H](N)C(=O)N(Cc1ccccc1C#N)[C@@H](C)c1nc(-c2ccccc2)c[nH]1` [Cpd 2]: the Ki was 0.0029 µM.
Turning to `COc1ccc(CN(C(=O)[C@@H](N)Cc2c(C)cc(C(N)=O)cc2C)[C@@H](C)c2nc(-c3cccc(Br)c3)c[nH]2)cc1OC` [Cpd 19], the Ki amounted to 0.0182 µM.
`Cc1cc(O)cc(C)c1C[C@H](N)C(=O)N(Cc1nc(-c2ccc(CO)cc2)c(C)[nH]1)C(C)C` [Cpd 39]: the Ki was 0.0009 µM.
With `Cc1cc(O)cc(C)c1C[C@H](N)C(=O)N(Cc1nc(-c2ccc(OC(F)(F)F)cc2)c(C)[nH]1)C(C)C` [Cpd 44], the Ki turned out to be 0.0087 µM.
Same read-out and setting: as for `COc1ccc(CN(Cc2nc(-c3ccccc3)c[nH]2)C(=O)[C@@H](N)Cc2c(C)cc(O)cc2C)cc1OC` [Cpd 35], the figure is 0.0028 µM; as for `Cc1cc(O)cc(C)c1C[C@H](N)C(=O)N(Cc1nc(-c2cccc(OC(F)(F)F)c2)c(C)[nH]1)C(C)C` [Cpd 43], 0.0069 µM.
Turning to `COc1ccc(CN(C(=O)[C@@H](N)Cc2c(C)cc(C(N)=O)cc2C)[C@@H](C)c2nc(-c3ccccc3C(N)=O)c[nH]2)cc1OC` [Cpd 28], the Ki came to 0.044 µM.
`Cc1cc(O)cc(C)c1C[C@H](N)C(=O)N(Cc1nc(-c2cc(N)cc(C(=O)O)c2)c(C)[nH]1)C(C)C` [Cpd 47]: the Ki was 0.022 µM.
Take `COc1ccc(CN(C(=O)[C@@H](N)Cc2c(C)cc(O)cc2C)[C@@H](C)c2nc(-c3ccccc3)c[nH]2)c(OC)c1` [Cpd 34]: the Ki is 0.019 µM.
With `COc1ccc(CN(C(=O)[C@@H](N)Cc2c(C)cc(C(N)=O)cc2C)[C@@H](C)c2nc(-c3cccc(C#N)c3)c[nH]2)cc1OC` [Cpd 24], the Ki worked out at 0.0093 µM.
Regarding `Cc1cc(C(N)=O)cc(C)c1C[C@H](N)C(=O)N(C1CCCCC1)[C@H](C)c1nc(-c2ccccc2)c[nH]1` [Cpd 128], the Ki was found to be 0.058 µM.
As to `COc1cccc(CN(C(=O)[C@@H](N)Cc2c(C)cc(O)cc2C)[C@@H](C)c2nc(-c3ccccc3)c[nH]2)c1` [Cpd 33], the Ki worked out at 0.0069 µM.
Take `Cc1cc(O)cc(C)c1C[C@H](N)C(=O)N(Cc1ccc(OCc2ccccc2)c(OCc2ccccc2)c1)[C@@H](C)c1nc(-c2ccccc2)c[nH]1` [Cpd 30]: the Ki amounted to 0.034 µM.
Still for that read-out and setting: for `COC(=O)c1cc(CN(C(=O)[C@@H](N)Cc2ccccc2)[C@@H](C)c2nc(-c3ccccc3)c[nH]2)ccc1OC` [Cpd 266] the value was 0.069 µM; for `COc1ccc(CN(C(=O)[C@@H](N)Cc2c(C)cc(O)cc2C)[C@H](COCc2ccccc2)c2nc(-c3ccccc3)c[nH]2)cc1OC` [Cpd 22], about 0.2 µM; for `COC(=O)c1cc(CN(C(=O)[C@@H](N)Cc2c(C)cc(O)cc2C)[C@@H](C)c2nc(-c3ccccc3)c[nH]2)ccc1OC` [Cpd 268], 0.00579 µM.
Regarding `Cc1cc(C(=O)O)cc(C)c1C[C@H](N)C(=O)N(Cc1ccc(C(=O)O)cc1)[C@@H](C)c1nc(-c2ccccc2)c[nH]1` [Cpd 49], the Ki turned out to be 0.048 µM.
As to `COc1ccc(CN(C(=O)[C@@H](N)Cc2c(C)cc(C(N)=O)cc2C)[C@@H](C)c2nc(-c3ccccc3C#N)c[nH]2)cc1OC` [Cpd 27], the Ki amounted to 0.03 µM.
Still for that read-out and setting: for `Cc1[nH]c(CN(C(=O)[C@@H](N)Cc2ccc(O)cc2)C(C)C)nc1-c1cncnc1` [Cpd 132] the value was 0.166 µM; for `COc1ccc(CN(C(=O)[C@@H](N)Cc2c(C)cc(O)cc2C)[C@@H](COCc2ccccc2)c2nc(-c3ccccc3)c[nH]2)cc1OC` [Cpd 21], 0.0376 µM; for `Cc1cc(C(N)=O)cc(C)c1C[C@H](N)C(=O)N(Cc1ccccc1Br)[C@@H](C)c1nc(-c2ccccc2)c[nH]1` [Cpd 3], 0.013 µM.
`COc1ccc(CN(C(=O)[C@@H](N)Cc2c(C)cc(O)cc2C)[C@@H](C)c2nc(-c3ccccc3)c[nH]2)cc1` [Cpd 32]: the Ki amounted to 0.0068 µM.
Consider `Cc1cc(O)cc(C)c1C[C@H](N)C(=O)N(Cc1nc(-c2ccccc2)c[nH]1)C(c1ccccc1)c1ccccc1` [Cpd 40], for which the Ki worked out at 0.152 µM.
As to `Cc1cc(O)cc(C)c1C[C@H](N)C(=O)N(Cc1nc(-c2cccc(NS(C)(=O)=O)c2)c(C)[nH]1)C(C)C` [Cpd 45], the Ki turned out to be 0.0012 µM.
Consider `COc1ccc(CN(C(=O)[C@@H](N)Cc2c(C)cc(C(N)=O)cc2C)[C@@H](C)c2nc(-c3cccc(C(N)=O)c3)c[nH]2)cc1OC` [Cpd 23], for which the Ki worked out at 0.0343 µM.
`CN[C@@H](Cc1ccc(OCc2ccccc2)cc1)C(=O)N(Cc1ccc(OC)c(C(=O)O)c1)[C@@H](C)c1nc(-c2ccccc2)c[nH]1` [Cpd 274]: the Ki is over 1 µM.
Take `Cc1cc(O)cc(C)c1C[C@H](N)C(=O)N(CC(=O)O)Cc1nc(-c2ccccc2)c[nH]1` [Cpd 129]: the Ki turned out to be 0.0253 µM.
For `COC(=O)c1cc(CN(Cc2nc(-c3ccccc3)c[nH]2)C(=O)[C@@H](N)Cc2c(C)cc(C(N)=O)cc2C)ccc1OC` [Cpd 7], the Ki amounted to 0.0068 µM.
Regarding `Cc1cc(O)cc(C)c1C[C@H](N)C(=O)N(Cc1nc(-c2ccc(C#N)cc2)c(C)[nH]1)C(C)C` [Cpd 41], the Ki was 0.0016 µM.
On the same count and under the same terms, for `Cc1cc(C(N)=O)cc(C)c1C[C@H](N)C(=O)N(Cc1ccccc1)[C@H](C)c1nc(-c2ccccc2)c[nH]1` [Cpd 113] the value was 0.016 µM.
The same measure, in the same setting: for `COC(=O)c1cccc(CN(C(=O)[C@@H](N)Cc2c(C)cc(C(N)=O)cc2C)[C@@H](C)c2nc(-c3cccc4ccccc34)c[nH]2)c1` [Cpd 10] the value was 0.0155 µM; for `Cc1cc(O)cc(C)c1C[C@H](N)C(=O)N(Cc1ccc(O)c(O)c1)[C@@H](C)c1nc(-c2ccccc2)c[nH]1` [Cpd 15], 0.285 µM.
Take `COc1cc(Br)c(CN(C(=O)[C@@H](N)Cc2c(C)cc(C(N)=O)cc2C)[C@@H](C)c2nc(-c3ccccc3)c[nH]2)cc1OC` [Cpd 229]: the Ki was determined as 0.012 µM.
Consider `Cc1cc(C(N)=O)cc(C)c1C[C@H](N)C(=O)N(Cc1ccc(C(=O)O)cc1)[C@@H](C)c1nc(-c2cccc3ccccc23)c[nH]1` [Cpd 13], for which the Ki is 0.0048 µM.
Same read-out and setting: as for `Cc1cc(O)cc(C)c1C[C@H](N)C(=O)N(Cc1nc(-c2ccc(CCC(=O)O)cc2)c(C)[nH]1)C(C)C` [Cpd 46], the figure is 0.035 µM; as for `C[C@@H](c1nc(Cc2ccccc2)c[nH]1)N(C)C(=O)[C@@H](N)Cc1ccc(O)cc1` [Cpd 204], 0.0077 µM.

Another experiment has as its target T2, mu opioid receptor (CHO-hMOR cell membranes) (Homo sapiens, UniProt P35372).
T2 construct: purchased Receptor Biology, Inc. (Baltimore, Md.); host or cells: CHO cells (recombinant expression)
Nature of the experiment: Mu Opioid Receptor Functional Assay: [35S]GTPγS Binding in CHO-hMOR Cell Membranes, Versions 1 and 2. Format: biochemical. To be noted: version 2, % inhibition of agonist-stimulated GTPγS binding. The procedure:
CHO-hMOR cell membranes were purchased from Receptor Biology, Inc. (Baltimore, Md.). About 10 mg/ml of membrane protein was suspended in 10 mM TRIS-HCl pH 7.2, 2 mM EDTA, 10% sucrose, and the suspension kept on ice. One ml of membranes was added to 15 ml cold binding assay buffer containing 50 mM HEPES, pH 7.6, 5 mM MgCl2, 100 mM NaCl, 1 mM DTT and 1 mM EDTA. The membrane suspension was homogenized with a Polytron and centrifuged at 3,000 rpm for 10 min. The supernatant was then centrifuged at 18,000 rpm for 20 min. The pellet was resuspended in 10 ml assay buffer with a Polytron.
The membranes were preincubated with wheat germ agglutinin coated SPA beads (Amersham) at 25° C. for 45 min in the assay buffer. The SPA bead (5 mg/ml) coupled membranes (10 μg/ml) were then incubated with 0.5 nM [^35S]GTPγS in the assay buffer. […] A range of concentrations of receptor agonists was used to stimulate [^35S]GTPγS binding. Both basal and non-specific binding was tested in the absence of agonist; non-specific binding determination included 10 μM unlabeled GTPγS.
Compounds were tested for function as antagonists by evaluating their potential to inhibit agonist-stimulated GTPγS binding. Radioactivity was quantified on a Packard TopCount. The following parameters were calculated:
[formula] % Inhibition=(% stimulation by 1 μM SNC80−% stimulation by 1 μM SNC80 in presence of test compound)×100/(% Stimulation by 1 μM SNC80−100)
EC50 values were calculated using GraphPad Prism.
Take `COC(=O)N[C@@H](Cc1c(C)cc(C(N)=O)cc1C)C(=O)N(Cc1ccc(OC)c(C(=O)OC)c1)[C@@H](C)c1nc(-c2ccccc2)c[nH]1` [Cpd 310]: the “MOR GTP binding assay_v2 (% I)” value worked out at 51.00%.
Take `COC(=O)c1ccnc(CN(C(=O)[C@@H](N)Cc2c(C)cc(C(N)=O)cc2C)[C@@H](C)c2nc(-c3ccccc3)c[nH]2)c1` [Cpd 312]: the “MOR GTP binding assay_v2 (% I)” value was determined as 35.00%.

The experiment is the same for the next values; noted with them: version 2, read-out: MOR GTP binding assay v2 EC50.
With `COC(=O)N[C@@H](Cc1c(C)cc(C(N)=O)cc1C)C(=O)N(Cc1ccc(OC)c(C(=O)OC)c1)[C@@H](C)c1nc(-c2ccccc2)c[nH]1` [Cpd 310], the EC50 is 3.92 µM.
In the case of `COC(=O)c1ccnc(CN(C(=O)[C@@H](N)Cc2c(C)cc(C(N)=O)cc2C)[C@@H](C)c2nc(-c3ccccc3)c[nH]2)c1` [Cpd 312], the EC50 turned out to be 0.0587 µM.
